ChEMBL document CHEMBL4842362, “From virtual screening hits targeting a cryptic pocket in BACE-1 to a nontoxic brain permeable multitarget anti-Alzheimer lead with disease-modifying and cognition-enhancing effects” (Eur J Med Chem, 2021)
In brackets after ≈: the same amount, converted by molar mass. Several values for one entry are separate records, joined by “and”; a condition that tells them apart may be missing. Equal values may be shown once. Activity calls are given as the source filed them. The calls are words filed in the database; no cut-off is given here.

Key:
[1] = Metal chelating activity assessed as compound-Cu2+ complex formation at ratio of 5:1 by pyrocatechol violet assay; settings: dose 3.0 mM
[2] = Metal chelating activity assessed as compound-Cu2+ complex formation at ratio of 0.5:1 by pyrocatechol violet assay; settings: dose 3.0 mM
[3] = Metal chelating activity assessed as compound-Cu2+ complex formation at ratio of 2:1 by pyrocatechol violet assay; settings: dose 3.0 mM
[4] = Metal chelating activity assessed as compound-Cu2+ complex formation at ratio of 1:1 by pyrocatechol violet assay; settings: dose 3.0 mM
[5] = Metal chelating activity assessed as compound-Fe2+ complex formation at 3 mM in presence of FeCl2 by UV-Vis spectra analysis
[6] = target: Microtubule-associated protein tau (Homo sapiens) (UniProt P10636); assay: Inhibition of tau aggregation (unknown origin) in Escherichia coli BL21 (DE3) at 10 uM incubated overnight by thioflavin S based fluorescence analysis relative to control
Chain of Microtubule-associated protein tau (Homo sapiens) (P10636 whole entry): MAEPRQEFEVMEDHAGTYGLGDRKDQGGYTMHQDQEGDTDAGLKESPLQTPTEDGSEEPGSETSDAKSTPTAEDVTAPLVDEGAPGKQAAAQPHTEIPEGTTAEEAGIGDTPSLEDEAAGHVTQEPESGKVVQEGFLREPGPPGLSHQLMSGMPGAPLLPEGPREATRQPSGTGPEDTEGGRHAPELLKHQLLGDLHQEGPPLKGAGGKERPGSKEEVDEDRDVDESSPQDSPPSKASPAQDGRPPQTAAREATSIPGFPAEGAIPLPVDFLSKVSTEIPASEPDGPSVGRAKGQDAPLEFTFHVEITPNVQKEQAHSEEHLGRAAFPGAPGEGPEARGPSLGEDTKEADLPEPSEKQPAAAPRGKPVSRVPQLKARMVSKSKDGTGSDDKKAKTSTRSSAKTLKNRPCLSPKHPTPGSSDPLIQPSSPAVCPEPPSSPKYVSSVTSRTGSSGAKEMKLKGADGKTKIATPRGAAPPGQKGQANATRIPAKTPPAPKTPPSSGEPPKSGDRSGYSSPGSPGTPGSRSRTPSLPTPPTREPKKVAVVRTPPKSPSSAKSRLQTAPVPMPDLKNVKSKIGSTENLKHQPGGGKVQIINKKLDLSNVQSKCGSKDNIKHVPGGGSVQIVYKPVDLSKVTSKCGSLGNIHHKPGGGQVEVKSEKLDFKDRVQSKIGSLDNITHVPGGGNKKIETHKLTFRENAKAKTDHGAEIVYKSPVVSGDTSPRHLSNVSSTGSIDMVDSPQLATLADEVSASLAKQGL

[7] = Acute toxicity in zebra fish embryos assessed as lethality measured every 24 hrs for 72 hrs; design: species or system Danio rerio; settings: zebrafish
Cholinesterase [8] = target: T1, Cholinesterase (Homo sapiens, UniProt P06276); assay: Potency index, ratio of donepezil IC50 to test compound IC50 for inhibition of human serum BChE using butyrylthiocholine iodide as a substrate preincubated for 20 mins followed by substrate addition by spectrophotometric analysis; type: cell-free
T1 sequence (P06276 whole entry): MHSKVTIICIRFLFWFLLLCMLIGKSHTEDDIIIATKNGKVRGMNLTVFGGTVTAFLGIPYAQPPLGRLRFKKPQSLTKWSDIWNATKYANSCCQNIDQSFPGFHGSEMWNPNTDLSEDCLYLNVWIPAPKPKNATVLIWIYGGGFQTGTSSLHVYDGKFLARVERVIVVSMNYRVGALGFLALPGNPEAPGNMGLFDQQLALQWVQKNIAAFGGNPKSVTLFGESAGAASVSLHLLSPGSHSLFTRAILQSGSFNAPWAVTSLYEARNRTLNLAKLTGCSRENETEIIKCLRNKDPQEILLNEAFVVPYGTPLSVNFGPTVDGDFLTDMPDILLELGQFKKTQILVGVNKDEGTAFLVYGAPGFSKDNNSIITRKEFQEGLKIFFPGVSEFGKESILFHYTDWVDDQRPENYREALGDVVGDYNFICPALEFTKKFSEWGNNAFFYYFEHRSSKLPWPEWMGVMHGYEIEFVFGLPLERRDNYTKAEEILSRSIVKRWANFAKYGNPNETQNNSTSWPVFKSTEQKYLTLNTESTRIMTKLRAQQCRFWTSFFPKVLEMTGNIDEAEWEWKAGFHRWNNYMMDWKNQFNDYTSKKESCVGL

[9] = Antioxidant activity assessed as free radical scavenging activity incubated for 30 mins under dark condition by DPPH assay; type: functional
Cholinesterase [10] = target: T1, Cholinesterase; assay: Potency index, ratio of rhein-huprine hybrid IC50 to test compound IC50 for inhibition of human serum BChE using butyrylthiocholine iodide as a substrate preincubated for 20 mins followed by substrate addition by spectrophotometric analysis; type: cell-free
Cholinesterase [11] = target: T1, Cholinesterase; assay: Potency index, ratio of huprine-Y IC50 to test compound IC50 for inhibition of human serum BChE using butyrylthiocholine iodide as a substrate preincubated for 20 mins followed by substrate addition by spectrophotometric analysis; type: cell-free
[12] = Neurotoxicity in mouse HT-22 cells assessed as decrease in cell viability at up to 25 uM by MTT assay; type: cell-based
Acetylcholinesterase [13] = target: T2, Acetylcholinesterase (Homo sapiens, UniProt P22303); assay: Potency index, ratio of donepezil IC50 to test compound IC50 for inhibition of human recombinant AChE using acetylthiocholine iodide as a substrate preincubated for 20 mins followed by substrate addition by spectrophotometric analysis
T2 sequence (P22303 whole entry): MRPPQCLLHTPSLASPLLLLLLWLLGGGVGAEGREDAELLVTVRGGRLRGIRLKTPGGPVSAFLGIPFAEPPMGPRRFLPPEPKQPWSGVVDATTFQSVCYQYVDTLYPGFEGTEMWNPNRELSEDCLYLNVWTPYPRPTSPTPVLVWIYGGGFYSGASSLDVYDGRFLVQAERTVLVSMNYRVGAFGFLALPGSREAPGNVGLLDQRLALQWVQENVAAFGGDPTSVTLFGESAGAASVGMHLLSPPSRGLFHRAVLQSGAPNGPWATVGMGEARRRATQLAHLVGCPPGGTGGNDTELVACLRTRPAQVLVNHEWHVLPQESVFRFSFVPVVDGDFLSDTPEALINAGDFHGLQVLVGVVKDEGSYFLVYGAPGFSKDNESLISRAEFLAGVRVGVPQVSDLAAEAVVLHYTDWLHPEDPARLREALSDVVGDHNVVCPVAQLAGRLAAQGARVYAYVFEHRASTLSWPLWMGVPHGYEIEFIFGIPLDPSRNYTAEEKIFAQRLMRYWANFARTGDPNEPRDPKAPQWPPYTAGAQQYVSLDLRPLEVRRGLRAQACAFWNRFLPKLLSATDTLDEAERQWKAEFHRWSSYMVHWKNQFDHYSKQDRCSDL

[14] = target: Amyloid-beta precursor protein (Homo sapiens) (UniProt P05067); assay: Inhibition of amyloid beta (1 to 42) (unknown origin) aggregation in Escherichia coli BL21 (DE3) at 10 uM incubated overnight by thioflavin S based fluorescence analysis relative to control
Chain of Amyloid-beta precursor protein (Homo sapiens) (P05067 whole entry): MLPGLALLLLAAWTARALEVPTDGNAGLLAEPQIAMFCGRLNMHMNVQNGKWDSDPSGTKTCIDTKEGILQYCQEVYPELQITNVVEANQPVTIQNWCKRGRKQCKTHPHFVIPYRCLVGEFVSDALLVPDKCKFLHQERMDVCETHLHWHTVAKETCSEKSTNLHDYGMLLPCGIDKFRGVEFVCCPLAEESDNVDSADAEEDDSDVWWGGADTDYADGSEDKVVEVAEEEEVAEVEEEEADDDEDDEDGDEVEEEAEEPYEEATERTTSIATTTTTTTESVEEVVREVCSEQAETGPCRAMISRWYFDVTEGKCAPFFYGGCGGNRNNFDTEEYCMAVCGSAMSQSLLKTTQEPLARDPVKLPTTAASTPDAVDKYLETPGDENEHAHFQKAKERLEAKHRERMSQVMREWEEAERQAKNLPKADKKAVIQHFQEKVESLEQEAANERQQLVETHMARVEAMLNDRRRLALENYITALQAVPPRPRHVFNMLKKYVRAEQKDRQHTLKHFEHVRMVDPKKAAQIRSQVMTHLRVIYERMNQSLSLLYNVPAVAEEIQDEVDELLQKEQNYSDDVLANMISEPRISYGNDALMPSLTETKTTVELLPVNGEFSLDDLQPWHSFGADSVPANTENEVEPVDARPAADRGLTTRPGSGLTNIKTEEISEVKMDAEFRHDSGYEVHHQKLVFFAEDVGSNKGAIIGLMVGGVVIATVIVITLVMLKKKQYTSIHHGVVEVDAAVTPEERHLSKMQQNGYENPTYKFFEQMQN

[15] = Kinetic solubility of the compound in DMSO/PBS buffer measured after 2 hrs by nephalometric analysis; type: physicochemical; settings: for solubility kinetic at 2 h: DMSO/PBS buffer, read-out: Kinetic_solubility
[16] = Permeability of the compound in PBS/EtOH by PAMPA-BBB assay; type: ADME; settings: read-out: permeability
Cholinesterase [17] = target: T1, Cholinesterase
Description: Inhibition of human serum BChE using butyrylthiocholine iodide as a substrate preincubated for 20 mins followed by substrate addition by spectrophotometric analysis

Acetylcholinesterase [18] = target: T2, Acetylcholinesterase; assay: Potency index, ratio of rhein-huprine hybrid IC50 to test compound IC50 for inhibition of human recombinant AChE using acetylthiocholine iodide as a substrate preincubated for 20 mins followed by substrate addition by spectrophotometric analysis
Acetylcholinesterase [19] = target: T2, Acetylcholinesterase
Description: Inhibition of human recombinant AChE using acetylthiocholine iodide as a substrate preincubated for 20 mins followed by substrate addition by spectrophotometric analysis

Beta-secretase 1 [20] = target: T3, Beta-secretase 1 (Homo sapiens, UniProt P56817); assay: Inhibition of human recombinant BACE-1 expressed in Escherichia coli at 10 uM using panvera peptide as a substrate incubated for 1 hr by fluorescence analysis relative to control
T3 sequence (P56817 whole entry): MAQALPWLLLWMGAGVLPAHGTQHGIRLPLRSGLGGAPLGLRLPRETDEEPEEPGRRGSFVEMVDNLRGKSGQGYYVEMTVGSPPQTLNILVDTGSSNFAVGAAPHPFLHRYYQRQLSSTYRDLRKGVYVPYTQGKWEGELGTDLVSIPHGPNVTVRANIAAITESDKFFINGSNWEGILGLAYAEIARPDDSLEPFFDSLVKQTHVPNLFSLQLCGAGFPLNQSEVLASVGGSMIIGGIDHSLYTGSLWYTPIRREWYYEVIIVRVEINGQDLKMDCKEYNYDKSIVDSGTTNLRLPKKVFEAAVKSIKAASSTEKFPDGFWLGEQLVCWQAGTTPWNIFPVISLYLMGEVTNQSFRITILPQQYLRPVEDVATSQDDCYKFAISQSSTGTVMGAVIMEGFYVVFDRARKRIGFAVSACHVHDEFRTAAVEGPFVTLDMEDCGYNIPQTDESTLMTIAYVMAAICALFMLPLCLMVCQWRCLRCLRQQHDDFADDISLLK

[21] = Antioxidant activity assessed as free radical scavenging activity at 500 uM incubated for 30 mins under dark condition by DPPH assay; type: functional
[22] = Acute toxicity in zebra fish embryos assessed as lethality at 12.5 to 100 uM measured every 24 hrs for 72 hrs relative to control; design: species or system Danio rerio; settings: zebrafish, dose 12.5-100 µM, read-out: Activity
[23] = Metal chelating activity assessed as compound-Zn2+ complex formation at 3 mM in presence of ZnCl2 by UV-Vis spectra analysis
HT-22 [24] = assay: Neuroprotective activity against glutamate induced neuronal death in mouse HT-22 cells assessed as increase in cell viability at 1 to 25 uM by MTT assay; type: functional, cell-based; settings: dose 1-25 µM
[25] = Metal chelating activity assessed as compound-Cu2+ complex formation at 3 mM in presence of CuSO4 by UV-Vis spectra analysis
HT-22 [26] = assay: Neuroprotective activity against glutamate induced neuronal death in mouse HT-22 cells assessed as increase in cell viability by MTT assay; type: functional, cell-based; settings: dose 1-25 µM
HT-22 [27] = assay: Neuroprotective activity against glutamate induced neuronal death in mouse HT-22 cells assessed as increase in cell viability at 25 uM by MTT assay; type: functional, cell-based
[28] = Neurotoxicity in mouse HT-22 cells assessed as decrease in cell viability at up to 10 uM by MTT assay; type: cell-based
Beta-secretase 1 [29] = target: T3, Beta-secretase 1; assay: Inhibition of human recombinant BACE-1 expressed in Escherichia coli using panvera peptide as a substrate incubated for 1 hr by fluorescence analysis

Row | Compound | inhibition [6] [%] | LC50 at 72 h [7] [nM] | Ratio IC50 (Cholinesterase [8]) | Ratio IC50 (Cholinesterase [10]) | Ratio IC50 (Cholinesterase [11]) | Activity [12] | Ratio IC50 (Acetylcholinesterase [13]) | inhibition [14] [%] | solubility kinetic at 2 h [15] [µg/mL] | Papp [16] [×10⁻⁶ cm/s] | IC50 (Cholinesterase [17]) [nM] | Ratio IC50 (Acetylcholinesterase [18]) | IC50 (Acetylcholinesterase [19]) [nM] | inhibition (Beta-secretase 1 [20]) | Activity [21] | also measured
1 | O=C(O)CN(CCN(CC(=O)O)CC(=O)O)CC(=O)O | – | – | – | – | – | – | – | – | – | – | – | – | – | – | – | Activity [1]: Active; Activity [2]: Active; Activity [3]: Active; Activity [4]: Active; Activity [5]: Active
2 | CC1=CC2Cc3nc4cc(Cl)ccc4c(NCCCCCCCCC(=O)NCc4cc[nH]c(=O)c4)c3C(C1)C2 (configuration not stated) | 20.9 | > 100000 | 79 | 7 | 2 | Non-Toxic | < 65 | 19.9 | 13.8 (≈ 25.2 µM) | 4.4 | 75.8 | < 9 | 0.63 | inactive | – | EC50 [9]: 90600 nM
3 | COc1cc(CNC(=O)CCCCCCCCNc2c3c(nc4cc(Cl)ccc24)CC2C=C(C)CC3C2)ccn1 (configuration not stated) | 41.6 | 7100 | 79 | 7 | 2 | Non-Toxic | < 65 | 29.4 | 5.1 (≈ 9.09 µM) | 8.2 | 88.5 | < 9 | 1.25 | 26.5% | inactive | mortality at 24 h, 100 µM [22]: 75%
4 | CC1=CC2Cc3nc4cc(Cl)ccc4c(N)c3C(C1)C2 (racemic) [HUPRINE Y] | – | 20900 | – | – | – | – | – | – | – | – | – | – | – | – | – | –
5 | CC1=CC2Cc3nc4cc(Cl)ccc4c(NCCCCCCCCCNC(=O)c4ccc[nH]c4=O)c3C(C1)C2 (configuration not stated) | 48.5 | 57800 | 79 | 7 | 2 | Non-Toxic | < 65 | 42.3 | 7.7 (≈ 14.1 µM) | 6.7 | 31.9 | < 9 | 1.82 | 6.92% | inactive | Activity [23]: Active; Activity (HT-22 [24]): inactive; Activity [25]: Active
6 | CC1=CC2Cc3nc4cc(Cl)ccc4c(NCCCCCCCCC(=O)Nc4cn[nH]c4)c3C(C1)C2 (configuration not stated) | 45.3 | 69100 | 79 | 7 | 2 | Non-Toxic | < 65 | 32.6 | 9.3 (≈ 18.4 µM) | 5.9 | 64 | < 9 | 2.39 | 16.2% | – | Activity [1]: Active; Activity [2]: Active; EC50 [9]: 19600 nM; Activity [23]: Active; Activity [3]: Active; Activity [4]: Active; Activity [5]: Active; Activity [25]: Active; Activity (HT-22 [26]): Dose-Dependent Effect
7 | CC[N+](C)(CC)CCC[n+]1c(-c2ccccc2)c2cc(N)ccc2c2ccc(N)cc21 | – | – | – | – | – | – | – | 39.2 | – | – | – | – | – | – | – | –
8 | CC1=CC2Cc3nc4cc(Cl)ccc4c(NCCCCCCCCCNC(=O)c4cc(O)c5c(c4)C(=O)c4cccc(O)c4C5=O)c3C(C1)C2 (configuration not stated) | 29.6 | – | – | – | – | – | – | 47.9 | – | – | – | – | – | – | – | Kinetic_solubility ([15]; 2 h): 19.7 uM and 14.8 ug ml-1
9 | O=C1O[C@H]([C@@H](O)CO)C(O)=C1O [ASCORBIC ACID] | – | – | – | – | – | – | – | – | – | – | – | – | – | – | – | EC50 [9]: 11800 nM
10 | O=c1c(O)c(-c2ccc(O)c(O)c2)oc2cc(O)cc(O)c12 | – | – | – | – | – | – | – | – | – | – | – | – | – | – | – | Activity (HT-22 [27]): Active
11 | CC1=CC2Cc3nc4cc(Cl)ccc4c(NCCCCCCCCC(=O)N4CCNC(=O)C4)c3C(C1)C2 (configuration not stated) | 15 | > 100000 | 79 | 7 | 2 | Non-Toxic | < 65 | 9.7 | 43.3 (≈ 82.8 µM) | 4.9 | 74.8 | < 9 | 0.41 | inactive | inactive | –
12 | CC1=CC2Cc3nc4cc(Cl)ccc4c(NCCCCCCCCCNS(=O)(=O)c4cn[nH]c4)c3C(C1)C2 (configuration not stated) | 55.5 | > 100000 | 79 | 7 | 2 | – | < 65 | 35.3 | 5.7 (≈ 10.2 µM) | 6.3 | 50.3 | < 9 | 2.4 | – | inactive | Activity [1]: Active; Activity [2]: Active; Activity [28]: Toxic; Activity [23]: Active; Activity [3]: Active; Activity (HT-22 [24]): inactive; IC50 (Beta-secretase 1 [29]): 10800 nM; Activity [4]: Active; Activity [5]: Active; Activity [25]: Active
